From patent US9079910B2, “5-(1,2,3-triazol-4-yl)-7H-pyrrolo[2,3-D]pyrimidine derivatives” (Merck Patent GmbH, priority 2011, dated 2015)
pIC50: −log10 of the molar value.

Assays:
PDK1 = target: T1, PDK1 (Homo sapiens, UniProt O15530); test: Test for the inhibition of PDK1 (flashplate, 33P-ATP); type: biochemical; settings: His6-PDK1, 4 μM ATP, 30° C., 60 min
T1 construct: His6 (N)
T1 sequence (O15530 51-556 limits assumed): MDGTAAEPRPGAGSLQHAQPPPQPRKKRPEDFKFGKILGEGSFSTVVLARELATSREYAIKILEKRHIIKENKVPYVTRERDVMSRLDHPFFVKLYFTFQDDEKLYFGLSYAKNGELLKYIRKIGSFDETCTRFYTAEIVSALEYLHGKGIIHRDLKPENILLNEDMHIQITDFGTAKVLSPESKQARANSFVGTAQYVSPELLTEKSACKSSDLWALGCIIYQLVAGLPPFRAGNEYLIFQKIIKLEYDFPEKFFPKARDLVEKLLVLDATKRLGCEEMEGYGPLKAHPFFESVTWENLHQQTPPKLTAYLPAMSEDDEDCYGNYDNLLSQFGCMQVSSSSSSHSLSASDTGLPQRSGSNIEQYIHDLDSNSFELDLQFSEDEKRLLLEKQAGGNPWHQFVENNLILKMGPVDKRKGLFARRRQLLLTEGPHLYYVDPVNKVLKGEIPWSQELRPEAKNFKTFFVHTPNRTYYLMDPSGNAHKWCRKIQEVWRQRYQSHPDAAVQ
Method: 4.0 Test for the Inhibition of PDK1
The experimental batches are carried out in a flashplate system with 384 wells/microtitration plate.
In each case, the PDK1 sample His6-PDK1(1-50)(3.4 nM), the PDK1 substrate biotin-bA-bA-[…] (400 nM), 4 μM ATP (with 0.2 μCi of ^33P-ATP/well) and the test substance in 50 μl of conventional experimental solution per well are incubated at 30° C. for 60 min. The test substances are employed in corresponding concentrations (if desired in a dilution series). The control is carried out without test substance. The reaction is stopped using standard methods and washed. The activity of the kinase is measured via the incorporated radioactivity in top count. In order to determine the non-specific kinase reaction (blank value), the experimental batches are carried out in the presence of 100 nM staurosporine.
The radioactivity (decompositions per minute) of the blank value (no use of test substance in the presence of staurosporine) is subtracted from all other radioactivity values. The controls (kinase activity without test substance) are set equal to 100 percent and all other radioactivity values (after subtracting the blank value) are expressed set in relation thereto (for example in % of the control).
IC50 values (50% inhibition) are determined with the aid of statistics programmes, such as, for example, RS1.

[1] = target: T2, TANK binding kinase (TBK1) (Homo sapiens, UniProt Q9UHD2); test: TBK1 kinase test (384-well flashplate assay); type: biochemical; settings: 0.6 nM TBK1, 10 μM ATP, 30° C., 120 min
T2 sequence (Q9UHD2 1-729): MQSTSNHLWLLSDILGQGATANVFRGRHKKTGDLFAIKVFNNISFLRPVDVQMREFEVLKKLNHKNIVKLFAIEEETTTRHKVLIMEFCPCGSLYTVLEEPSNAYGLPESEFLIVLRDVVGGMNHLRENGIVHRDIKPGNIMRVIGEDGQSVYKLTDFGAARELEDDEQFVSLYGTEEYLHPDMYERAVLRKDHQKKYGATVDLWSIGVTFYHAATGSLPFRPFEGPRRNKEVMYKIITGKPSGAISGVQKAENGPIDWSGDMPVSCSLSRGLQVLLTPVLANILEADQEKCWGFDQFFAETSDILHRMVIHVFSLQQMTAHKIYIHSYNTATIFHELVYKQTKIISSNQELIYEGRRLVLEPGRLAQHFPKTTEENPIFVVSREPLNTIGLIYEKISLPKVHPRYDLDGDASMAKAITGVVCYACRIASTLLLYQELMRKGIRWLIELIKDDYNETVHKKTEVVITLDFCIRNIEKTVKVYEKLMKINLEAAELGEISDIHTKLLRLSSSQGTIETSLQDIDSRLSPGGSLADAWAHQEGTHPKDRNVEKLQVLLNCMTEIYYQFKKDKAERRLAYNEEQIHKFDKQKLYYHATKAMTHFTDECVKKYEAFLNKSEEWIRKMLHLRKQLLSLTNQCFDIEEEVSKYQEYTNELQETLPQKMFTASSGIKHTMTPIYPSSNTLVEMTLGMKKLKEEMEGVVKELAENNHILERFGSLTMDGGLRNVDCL
Method: The kinase assay is performed as 384-well flashplate assay. 0.6 nM TANK binding kinase (TBK1), 800 nM biotinylated MELK-derived peptide (biotin-Ah-Ah-[…]) and 10 μM ATP (with 0.25 μCi of ^33P-ATP/well) are incubated in a total volume of 50 μl (10 mM MOPS, 10 mM magnesium acetate, 0.1 mM EGTA, 1 mM DTT, 0.02% of Brij35, 0.1% of BSA, pH 7.5) with or without test substance at 30° C. for 120 min. The reaction is stopped using 25 μl of 200 mM EDTA solution, filtered off with suction after 30 min at room temperature, and the wells are washed 3 times with 100 μl of 0.9% NaCl solution. The non-specific proportion of the kinase reaction (blank) is determined using 100 nM staurosporine. Radioactivity is measured in the Topcount. IC50 values are calculated using RS1.

IKKepsilon = target: T3, IKKepsilon (Homo sapiens, UniProt Q14164); test: IKK kinase test (IKKepsilon) (384-well flashplate assay); type: biochemical; settings: 1 nM IKK, 10 μM ATP, 30° C., 120 min
T3 sequence (Q14164 1-716): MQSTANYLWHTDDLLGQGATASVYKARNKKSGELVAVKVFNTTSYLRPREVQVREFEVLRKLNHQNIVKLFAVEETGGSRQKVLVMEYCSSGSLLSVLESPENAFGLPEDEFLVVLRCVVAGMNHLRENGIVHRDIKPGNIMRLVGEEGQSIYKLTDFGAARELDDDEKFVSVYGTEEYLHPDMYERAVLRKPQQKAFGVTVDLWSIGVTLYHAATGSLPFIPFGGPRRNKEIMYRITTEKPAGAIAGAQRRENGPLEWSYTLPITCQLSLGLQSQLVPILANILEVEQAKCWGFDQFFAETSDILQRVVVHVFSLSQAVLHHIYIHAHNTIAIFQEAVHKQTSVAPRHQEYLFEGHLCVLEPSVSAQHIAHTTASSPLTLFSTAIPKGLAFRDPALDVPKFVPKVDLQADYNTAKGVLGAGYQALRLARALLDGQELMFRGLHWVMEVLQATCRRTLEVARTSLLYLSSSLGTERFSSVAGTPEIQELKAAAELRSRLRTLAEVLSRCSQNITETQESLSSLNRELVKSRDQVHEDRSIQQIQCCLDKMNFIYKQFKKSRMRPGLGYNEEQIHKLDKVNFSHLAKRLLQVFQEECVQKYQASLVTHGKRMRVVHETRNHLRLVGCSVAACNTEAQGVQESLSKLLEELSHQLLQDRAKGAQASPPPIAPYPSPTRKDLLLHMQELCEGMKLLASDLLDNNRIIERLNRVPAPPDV
Method: IKK—Kinase Test (IKKepsilon)
The kinase assay is performed as 384-well flashplate assay.
1 nM IKK, 800 nM biotinylated I B (19-42) peptide (biotin-C6-C6-[…]) and 10 μM ATP (with 0.3 μCi of ^33P-ATP/well) are incubated in a total volume of 50 μl (10 mM MOPS, 10 mM magnesium acetate, 0.1 mM EGTA, 1 mM dithiothreitol, 0.02% of Brij35, 0.1% of BSA, 0.1% of BioStab, pH 7.5) with or without test substance at 30° C. for 120 min. The reaction is stopped using 25 μl of 200 mM EDTA solution, filtered off with suction after 30 min at room temperature, and the wells are washed 3 times with 100 μl of 0.9% NaCl solution. The non-specific proportion of the kinase reaction (blank) is determined using 3 μM BX-795. Radioactivity is measured in the Topcount. IC50 values are calculated using RS1.

A2780 = test: Vitality assay (tumour cell proliferation/vitality, Alamar Blue), A2780; type: cell-based; settings: Homo sapiens, 96 h, A2780 cells, 4 days
Method: (§1) In the present experiment description, the inhibition of tumour cell proliferation/tumour cell vitality by active compounds is described.
(§2) The cells are sown in a suitable cell density in microtitre plates (96-well format) and the test substances are added in the form of a concentration series. After four further days of cultivation in serum-containing medium, the tumour cell proliferation/tumour cell vitality can be determined by means of an Alamar Blue test system.
(§3) The cells are cultivated in medium. At intervals of several days, the cells are detached from the culture dishes with the aid of trypsin solution and sown in suitable dilution in fresh medium. The cells are cultivated at 37° Celsius and 10% CO2. […]
(§4) In each case, 20 μl of Alamar Blue reagent are added per well, and the microtitre plates are incubated, for example, for a further seven hours in a CO2 incubator (at 37° C. and 10% CO2). The plates are measured in a reader with a fluorescence filter at a wavelength of 540 nm. […]
(§5) The absorbance value of the medium control (no cells and test substances used) is subtracted from all other absorbance values. The controls (cells without test substance) are set equal to 100 percent, and all other absorbance values are set in relation thereto (for example in % of control):
(§6) IC50 values (50% inhibition) are determined with the aid of statistics programs, such as, for example, RS1.

HCT 116 = test: Vitality assay (tumour cell proliferation/vitality, Alamar Blue), HCT 116; type: cell-based; settings: Homo sapiens, 96 h, HCT 116 cells, 4 days
Method: as §1, §2, §3, §4, §5, §6

pIC50 (PDK1)	pIC50 [1]	pIC50 (IKKepsilon)	pIC50 (A2780)	pIC50 (HCT 116)	SMILES
6.00 to 8.00	6.00 to 8.00	5.00 to 6.00	5.00 to 6.00	5.00 to 6.00	COCCOc1ncnc2[nH]cc(-c3cn(Cc4ccccc4)nn3)c12 [Compound A1, 5-(1-benzyl-1H-1,2,3-triazol-4-yl)-4-(2-methoxyethoxy)-7H-pyrrolo[2,3-d]pyrimidine]
6.00 to 8.00	6.00 to 8.00	6.00 to 8.00			COc1ncnc2[nH]cc(-c3cn(Cc4ccccc4)nn3)c12 [Compound A2]
5.00 to 6.00	5.00 to 6.00	5.00 to 6.00			c1ccc(Cn2cc(-c3c[nH]c4ncncc34)nn2)cc1 [Compound A6, 5-(1-benzyl-1H-1,2,3-triazol-4-yl)-7H-pyrrolo[2,3-d]pyrimidine]
5.00 to 6.00	< 5.00	5.00 to 6.00			Fc1cccc(C(CCN2CCCCC2)n2cc(-c3c[nH]c4ncncc34)nn2)c1F (centres unmarked) [Compound A9, 5-{1-[1-(2,3-difluorophenyl)-3-piperidin-1-ylpropyl]-1H-1,2,3-triazol-4-yl}-7H-pyrrolo[2,3-d]pyrimidine]
